T1: OATP1B3 (Homo sapiens, UniProt Q9NPD5)
T1 sequence (Q9NPD5 whole entry): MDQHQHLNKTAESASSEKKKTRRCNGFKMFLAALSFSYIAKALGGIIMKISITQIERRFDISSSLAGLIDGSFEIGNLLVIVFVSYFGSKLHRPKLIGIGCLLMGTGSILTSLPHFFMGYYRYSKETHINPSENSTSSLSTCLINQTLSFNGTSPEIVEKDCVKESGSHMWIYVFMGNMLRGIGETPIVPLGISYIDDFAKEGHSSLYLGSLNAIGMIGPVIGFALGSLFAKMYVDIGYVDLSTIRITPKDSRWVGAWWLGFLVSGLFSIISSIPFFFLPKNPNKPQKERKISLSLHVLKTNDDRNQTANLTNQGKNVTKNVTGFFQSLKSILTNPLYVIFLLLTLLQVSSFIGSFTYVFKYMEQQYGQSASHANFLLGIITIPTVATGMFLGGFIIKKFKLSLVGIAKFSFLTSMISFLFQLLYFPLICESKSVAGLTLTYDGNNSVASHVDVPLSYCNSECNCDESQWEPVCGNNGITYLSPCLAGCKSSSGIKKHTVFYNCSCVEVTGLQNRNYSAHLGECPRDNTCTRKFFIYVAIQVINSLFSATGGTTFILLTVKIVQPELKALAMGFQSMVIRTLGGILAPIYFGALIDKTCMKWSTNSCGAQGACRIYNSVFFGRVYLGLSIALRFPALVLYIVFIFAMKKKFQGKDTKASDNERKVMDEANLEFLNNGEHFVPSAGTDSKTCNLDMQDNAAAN

T2: Hepatic sodium/bile acid cotransporter (Homo sapiens, UniProt Q14973)
T2 sequence (Q14973 whole entry): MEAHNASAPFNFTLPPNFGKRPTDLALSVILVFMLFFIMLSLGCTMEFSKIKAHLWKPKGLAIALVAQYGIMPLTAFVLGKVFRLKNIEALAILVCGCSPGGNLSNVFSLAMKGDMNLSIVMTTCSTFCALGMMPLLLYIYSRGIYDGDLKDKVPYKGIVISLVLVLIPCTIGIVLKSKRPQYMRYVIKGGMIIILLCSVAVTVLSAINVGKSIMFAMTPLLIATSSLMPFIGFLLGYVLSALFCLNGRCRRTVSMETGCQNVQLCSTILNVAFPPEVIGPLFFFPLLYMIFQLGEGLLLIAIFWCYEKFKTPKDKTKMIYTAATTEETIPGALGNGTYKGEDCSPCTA


Tests used:
[1] = target: ATP-binding cassette sub-family C member 2 (Rattus norvegicus, UniProt Q63120); experiment: TP_TRANSPORTER: biliary excretion in EHBR rat; format: functional, organism-based, Bile; conditions: in vivo
OATP1B3 = target: T1, OATP1B3; experiment: TP_TRANSPORTER: transport in OATP1B3-expressing oocytes; format: functional, cell-based, Oocyte
[2] = target: T3, ATP-binding cassette sub-family C member 2 (Homo sapiens, UniProt Q92887); experiment: TP_TRANSPORTER: transport in hCMV cells; format: functional, cell membranes, Canalicular membrane vesicle
[3] = target: T3, ATP-binding cassette sub-family C member 2; experiment: TP_TRANSPORTER: transport in MRP2-expressing vesicles; format: functional, subcellular
[4] = target: T2, Hepatic sodium/bile acid cotransporter; experiment: TP_TRANSPORTER: transport in NTCP-transfected HEK-293 cells; format: functional, cell-based; conditions: hek293
[5] = substrate: CCCc1nc(C(C)(C)O)c(C(=O)O)n1Cc1ccc(-c2ccccc2-c2nnn[nH]2)cc1; experiment: TP_TRANSPORTER: transport in OATP1B1-expressing oocytes; format: functional, cell-based, Oocyte

T3 sequence (Q92887 whole entry): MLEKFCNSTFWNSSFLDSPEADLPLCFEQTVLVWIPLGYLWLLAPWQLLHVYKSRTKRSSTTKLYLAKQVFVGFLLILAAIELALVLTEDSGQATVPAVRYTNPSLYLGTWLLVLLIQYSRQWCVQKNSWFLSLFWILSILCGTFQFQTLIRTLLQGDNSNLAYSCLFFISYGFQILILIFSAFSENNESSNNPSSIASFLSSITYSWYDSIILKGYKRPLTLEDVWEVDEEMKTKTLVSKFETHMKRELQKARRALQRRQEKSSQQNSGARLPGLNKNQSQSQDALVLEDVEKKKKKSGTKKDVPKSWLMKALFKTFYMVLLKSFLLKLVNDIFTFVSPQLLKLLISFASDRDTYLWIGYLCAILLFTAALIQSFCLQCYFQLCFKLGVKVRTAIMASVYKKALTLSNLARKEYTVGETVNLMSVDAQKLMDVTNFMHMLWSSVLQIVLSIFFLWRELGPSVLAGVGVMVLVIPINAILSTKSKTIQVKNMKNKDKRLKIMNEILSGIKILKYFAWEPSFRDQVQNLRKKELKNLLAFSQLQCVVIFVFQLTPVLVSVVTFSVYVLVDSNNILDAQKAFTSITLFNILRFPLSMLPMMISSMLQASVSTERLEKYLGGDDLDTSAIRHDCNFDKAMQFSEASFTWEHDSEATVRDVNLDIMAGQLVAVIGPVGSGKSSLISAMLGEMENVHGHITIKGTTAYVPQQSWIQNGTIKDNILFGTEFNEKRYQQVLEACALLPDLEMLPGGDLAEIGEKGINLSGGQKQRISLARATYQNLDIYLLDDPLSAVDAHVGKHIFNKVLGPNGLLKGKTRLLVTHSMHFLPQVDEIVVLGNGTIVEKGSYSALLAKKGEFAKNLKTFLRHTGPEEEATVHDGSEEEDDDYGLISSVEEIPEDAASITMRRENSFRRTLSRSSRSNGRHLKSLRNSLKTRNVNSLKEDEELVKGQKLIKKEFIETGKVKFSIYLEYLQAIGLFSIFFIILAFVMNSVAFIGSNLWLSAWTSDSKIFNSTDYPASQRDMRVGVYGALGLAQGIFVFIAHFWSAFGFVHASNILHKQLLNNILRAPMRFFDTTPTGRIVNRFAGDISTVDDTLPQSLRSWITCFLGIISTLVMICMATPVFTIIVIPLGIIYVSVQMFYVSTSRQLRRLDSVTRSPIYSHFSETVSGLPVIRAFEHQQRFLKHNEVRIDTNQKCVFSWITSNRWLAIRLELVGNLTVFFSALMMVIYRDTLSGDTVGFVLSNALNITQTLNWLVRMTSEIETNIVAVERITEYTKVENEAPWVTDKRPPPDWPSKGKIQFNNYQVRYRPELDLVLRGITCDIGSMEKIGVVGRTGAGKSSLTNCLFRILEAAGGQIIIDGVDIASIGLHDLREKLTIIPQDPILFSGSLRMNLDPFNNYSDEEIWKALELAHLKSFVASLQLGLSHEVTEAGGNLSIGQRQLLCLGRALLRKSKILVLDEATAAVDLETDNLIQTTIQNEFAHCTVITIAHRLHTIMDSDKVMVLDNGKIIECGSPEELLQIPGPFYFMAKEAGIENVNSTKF
ATP-binding cassette sub-family C member 2 (Rattus norvegicus, UniProt Q63120), sequence (Q63120 whole entry): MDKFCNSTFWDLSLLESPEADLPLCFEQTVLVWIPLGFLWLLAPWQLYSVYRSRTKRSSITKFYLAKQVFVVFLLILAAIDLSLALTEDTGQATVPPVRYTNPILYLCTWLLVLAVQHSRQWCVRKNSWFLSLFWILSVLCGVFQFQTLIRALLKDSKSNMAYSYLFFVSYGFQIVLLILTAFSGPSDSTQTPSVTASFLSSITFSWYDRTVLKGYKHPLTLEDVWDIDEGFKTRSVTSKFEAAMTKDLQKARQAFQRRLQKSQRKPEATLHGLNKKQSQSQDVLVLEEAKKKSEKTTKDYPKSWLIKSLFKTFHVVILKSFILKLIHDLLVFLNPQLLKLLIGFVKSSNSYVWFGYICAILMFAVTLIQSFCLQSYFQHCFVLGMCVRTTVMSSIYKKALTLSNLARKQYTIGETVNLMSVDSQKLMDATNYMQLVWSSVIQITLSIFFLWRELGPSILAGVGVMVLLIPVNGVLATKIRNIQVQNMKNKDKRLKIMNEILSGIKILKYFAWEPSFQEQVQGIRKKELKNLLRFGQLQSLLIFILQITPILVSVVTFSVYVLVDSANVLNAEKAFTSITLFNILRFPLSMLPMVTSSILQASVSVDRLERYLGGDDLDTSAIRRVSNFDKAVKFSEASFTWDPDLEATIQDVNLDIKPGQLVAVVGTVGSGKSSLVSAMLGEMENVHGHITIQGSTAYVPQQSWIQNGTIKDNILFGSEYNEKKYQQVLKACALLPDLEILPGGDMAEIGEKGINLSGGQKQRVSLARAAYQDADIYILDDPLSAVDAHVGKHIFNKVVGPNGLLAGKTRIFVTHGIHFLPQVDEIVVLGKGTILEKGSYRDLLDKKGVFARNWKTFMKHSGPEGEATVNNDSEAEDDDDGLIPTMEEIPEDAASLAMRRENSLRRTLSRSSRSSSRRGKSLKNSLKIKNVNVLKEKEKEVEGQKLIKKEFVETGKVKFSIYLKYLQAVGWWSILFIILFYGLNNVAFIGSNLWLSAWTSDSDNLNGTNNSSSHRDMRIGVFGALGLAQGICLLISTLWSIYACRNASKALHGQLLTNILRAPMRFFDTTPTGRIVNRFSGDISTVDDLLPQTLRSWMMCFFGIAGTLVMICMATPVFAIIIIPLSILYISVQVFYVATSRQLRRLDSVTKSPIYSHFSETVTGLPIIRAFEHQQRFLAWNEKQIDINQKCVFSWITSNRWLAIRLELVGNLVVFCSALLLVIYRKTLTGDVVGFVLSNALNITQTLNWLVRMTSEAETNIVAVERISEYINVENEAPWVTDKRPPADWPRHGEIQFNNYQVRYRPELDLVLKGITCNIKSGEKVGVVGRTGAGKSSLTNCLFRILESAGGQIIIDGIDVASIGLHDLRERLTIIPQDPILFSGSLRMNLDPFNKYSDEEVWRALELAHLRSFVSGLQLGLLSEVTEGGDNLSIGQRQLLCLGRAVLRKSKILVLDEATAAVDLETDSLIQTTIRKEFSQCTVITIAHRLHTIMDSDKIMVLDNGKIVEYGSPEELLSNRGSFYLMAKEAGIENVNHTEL

| Molecule | Activity [1] | Km (OATP1B3) [µM] | Activity [2] | Activity [3] | Activity [4] | Km [5] [µM] |
| --- | --- | --- | --- | --- | --- | --- |
| CCCc1nc(C(C)(C)O)c(C(=O)O)n1Cc1ccc(-c2ccccc2-c2nnn[nH]2)cc1 [OLMESARTAN] | substrate [+] | 71.8 | substrate [+] | substrate [+] | is not a substrate [-] | – |
| Solute carrier organic anion transporter family member 1B1 (Homo sapiens) (protein) MDQNQHLNKTAEAQPSENKKTRYCNGLKMFLAALSLSFIAKTLGAIIMKSSIIHIERRFEISSSLVGFIDGSFEIGNLLVIVFVSYFGSKLHRPKLIGIGCFIMGIGGVLTALPHFFMGYYRYSKETNINSSENSTSTLSTCLINQILSLNRASPEIVGKGCLKESGSYMWIYVFMGNMLRGIGETPIVPLGLSYIDDFAKEGHSSLYLGILNAIAMIGPIIGFTLGSLFSKMYVDIGYVDLSTIRITPTDSRWVGAWWLNFLVSGLFSIISSIPFFFLPQTPNKPQKERKASLSLHVLETNDEKDQTANLTNQGKNITKNVTGFFQSFKSILTNPLYVMFVLLTLLQVSSYIGAFTYVFKYVEQQYGQPSSKANILLGVITIPIFASGMFLGGYIIKKFKLNTVGIAKFSCFTAVMSLSFYLLYFFILCENKSVAGLTMTYDGNNPVTSHRDVPLSYCNSDCNCDESQWEPVCGNNGITYISPCLAGCKSSSGNKKPIVFYNCSCLEVTGLQNRNYSAHLGECPRDDACTRKFYFFVAIQVLNLFFSALGGTSHVMLIVKIVQPELKSLALGFHSMVIRALGGILAPIYFGALIDTTCIKWSTNNCGTRGSCRTYNSTSFSRVYLGLSSMLRVSSLVLYIILIYAMKKKYQEKDINASENGSVMDEANLESLNKNKHFVPSAGADSETHC | – | – | – | – | – | 42.6 |

Reference: ChEMBL document CHEMBL2074533, “OATP1B1, OATP1B3, and mrp2 are involved in hepatobiliary transport of olmesartan, a novel angiotensin II blocker” (Drug Metab Dispos, 2006)
